What all share (type): in vivo
Assay [1] deals with Nilaparvata lugens (brown planthoppers). The assay is described as follows: Activity against Nilaparvata lugens (brown planthoppers). As to conditions: compound by itself.
Assay [2] deals with Cnaphalocrocis medinalis (rice leaf rollers). The assay is described as follows: Activity against Cnaphalocrocis medinalis (rice leaf rollers). As to conditions: compound by itself.
The test system of assay [3] is Nephotettix cincticeps (green leaf hopper). The assay is described as follows: Activity against Nephotettix cincticeps (green leaf hopper), % mortality. As to conditions: for activity against Nephotettix cincticeps (green leaf hoppers), in words: compound by itself. An excerpt: In experiments on activity against Nephotettix spp. (rice leaf hoppers), for example, Nephotettix cincticeps (green leaf hopper), carried out on representative compounds of the first preferred embodiment, the following results (wherein ppm indicates the concentration of the compound in parts per million of the test solution applied) have been obtained, as shown in Table 7: […]

Structures are written as SMILES.

Turning to `COC(=O)N(C(=O)N1COC2(C(=O)OC)Cc3cc(Cl)ccc3C2=N1)c1ccc(OC(F)(F)F)cc1` (stereo not drawn) [Indoxacarb, indoxacarb], the “activity against Nilaparvata lugens (brown planthoppers), in words” value in assay [1] was “not particularly active”; in assay [1] (listed as indoxacarb), “not particularly effective”. For the same compound, the “activity against Cnaphalocrocis medinalis (rice leaf rollers), in words” value in assay [2] was “very active”; in assay [2] (listed as indoxacarb), “active”. In assay [3] (Nephotettix cincticeps, Indoxacarb 6.25 ppm alone (Ethiprole 0 ppm)), the mortality (as a rule, the share of the test organisms that died) at 6.25 ppm stood at 0%. Further, the mortality at 12.5 ppm in assay [3] (Nephotettix cincticeps, Indoxacarb 12.5 ppm alone (Ethiprole 0 ppm)) turned out to be 16.2%. For the same compound, the mortality at 25 ppm in assay [3] (Nephotettix cincticeps, Indoxacarb 25 ppm alone (Ethiprole 0 ppm)) is 38%. Moreover, the “activity against Nephotettix cincticeps (green leaf hoppers), in words” value was “some activity by itself” in assay [3] and “active” in assay [3] (listed as indoxacarb).
With `CC[S+]([O-])c1c(C#N)nn(-c2c(Cl)cc(C(F)(F)F)cc2Cl)c1N` (stereo not drawn) [Ethiprole, ethiprole], the “activity against Nilaparvata lugens (brown planthoppers), in words” value in assay [1] is listed as “shows activity”. Also, the “activity against Cnaphalocrocis medinalis (rice leaf rollers), in words” value in assay [2] was “not particularly active”. The “activity against Nephotettix cincticeps (green leaf hoppers), in words” value in assay [3] is on record as “some activity by itself”.

The record behind these values is US6492357B1, “Compositions and methods for controlling insects which damage rice and other crops” (Aventis CropScience, S.A., priority 1999, dated 2002).
